The values below come from patent US9708314B2, “Heterocyclic amide compound” (NISSAN CHEMICAL INDUSTRIES, LTD., priority 2013, dated 2017).

The test system of data set [1] is Amaranthus retroflexus. The data set can be described thus: Test Example 4: herbicidal effect by application to foliage (diluvial soil, plastic box). The settings on record: for N (Amaranthus retroflexus) herbicidal effect: application herbicide amount 320 g/ha; for N (Amaranthus retroflexus) herbicidal effect grade: foliage application. The data set is classed as in vivo. An outline of the steps: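 Seeds sown in sterilized diluvial soil, covered ~1.5 cm, grown 14 days in greenhouse at 25° C. to 30° C. Emulsion formulation diluted in water to set rate (g/ha) and sprayed onto stems and leaves. Effect scored visually 3 weeks later on 0–5 scale (5 = ≥90% herbicidal ratio, 0 = ≤5%).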

The structures appear in SMILES notation.

Turning to `Cc1nnc(NC(=O)c2ccc(C(F)(F)F)n3c(Br)nnc23)o1` [1-014], the “N (Amaranthus retroflexus) herbicidal effect” value in data set [1] (application to foliage) is 5 (Herbicidal ratio of 90% or more (almost completely withered)).

On to `Cc1nnc(NC(=O)c2ccc(C(F)(F)F)n3c(C)nnc23)o1` [1-002], for which the “N (Amaranthus retroflexus) herbicidal effect” value in data set [1] (application to foliage) was 3 (Herbicidal ratio of 40% or more and less than 70%).

Compound `Cc1nnc(NC(=O)c2ccc(C(F)(F)F)n3c(C(C)C)nnc23)o1` [1-004, 3-Isopropyl-N-(5-methyl-1,3,4-oxadiazol-2-yl)-5-(trifluoromethyl)-[1,2,4]triazolo[4,3-a]pyridine-8-carboxamide] returned a melting point of 176 to 178 °C. Besides, the “N (Amaranthus retroflexus) herbicidal effect” value in data set [1] (application to foliage) was 4 (Herbicidal ratio of 70% or more and less than 90%).

In the case of `COCc1nnc2c(C(=O)Nc3nnc(C)o3)ccc(C(F)(F)F)n12` [1-015], the “N (Amaranthus retroflexus) herbicidal effect” value in data set [1] (application to foliage) was 5 (Herbicidal ratio of 90% or more (almost completely withered)).

With `Cc1nnc(NC(=O)c2ccc(C(F)(F)F)n3c([S+]([O-])C(C)C)nnc23)o1` (centres unmarked) [1-035], in data set [1] (application to foliage), the “N (Amaranthus retroflexus) herbicidal effect” value is recorded as 5 (Herbicidal ratio of 90% or more (almost completely withered)).

With `C=CCSc1nnc2c(C(=O)Nc3nnco3)ccc(C(F)(F)F)n12` [1-128], in data set [1] (Application herbicide amount 288 g/ha), the “N (Amaranthus retroflexus) herbicidal effect grade” value is 3 (Herbicidal ratio of 40% or more and less than 70%).

On to `CCCc1nnc2c(C(=O)Nc3nnc(C)o3)ccc(C(F)(F)F)n12` [1-024], for which the “N (Amaranthus retroflexus) herbicidal effect” value in data set [1] (application to foliage) is reported as 5 (Herbicidal ratio of 90% or more (almost completely withered)).

On to `Cc1nnc(NC(=O)c2ccc(C(F)(F)F)n3c(C4CCCC4)nnc23)o1` [1-026], for which, in data set [1] (application to foliage), the “N (Amaranthus retroflexus) herbicidal effect” value is 4 (Herbicidal ratio of 70% or more and less than 90%).

Consider `Cc1nnc(NC(=O)c2ccc(C(F)(F)F)n3c(S(C)(=O)=O)nnc23)o1` [1-040], for which, in data set [1] (application to foliage), the “N (Amaranthus retroflexus) herbicidal effect” value is 5 (Herbicidal ratio of 90% or more (almost completely withered)).

For the compound `CCOCc1nnc2c(C(=O)Nc3nnc(C)o3)ccc(C(F)(F)F)n12` [1-027], the “N (Amaranthus retroflexus) herbicidal effect” value in data set [1] (application to foliage) is given as 5 (Herbicidal ratio of 90% or more (almost completely withered)).

As for `CC(C)c1nnc2c(C(=O)Nc3nnco3)ccc(C(F)(F)F)n12` [1-050], in data set [1] (application to foliage), the “N (Amaranthus retroflexus) herbicidal effect” value is 5 (Herbicidal ratio of 90% or more (almost completely withered)).

With `Cc1ccc(-c2nnc3c(C(=O)Nc4nnc(C)o4)ccc(C(F)(F)F)n23)cc1` [1-043], the “N (Amaranthus retroflexus) herbicidal effect” value in data set [1] (application to foliage) is recorded as 5 (Herbicidal ratio of 90% or more (almost completely withered)).

Regarding `Cc1nnc(NC(=O)c2ccc(C(F)(F)F)n3c(C[S+](C)[O-])nnc23)o1` (centres unmarked) [1-036], in data set [1] (application to foliage), the “N (Amaranthus retroflexus) herbicidal effect” value is 5 (Herbicidal ratio of 90% or more (almost completely withered)).

In the case of `Cc1nnc(NC(=O)c2ccc(C(F)(F)F)n3c(SC(C)C)nnc23)o1` [1-033], the “N (Amaranthus retroflexus) herbicidal effect” value in data set [1] (application to foliage) is reported as 5 (Herbicidal ratio of 90% or more (almost completely withered)).

For the compound `CC[S+]([O-])c1nnc2c(C(=O)Nc3nnc(C)o3)ccc(C(F)(F)F)n12` (centres unmarked) [1-034], the “N (Amaranthus retroflexus) herbicidal effect” value in data set [1] (application to foliage) is listed as 5 (Herbicidal ratio of 90% or more (almost completely withered)).

In turn, `CSc1nnc2c(C(=O)Nc3nnc(C)o3)ccc(C(F)(F)F)n12` [1-018, N-(5-Methyl-1,3,4-oxadiazol-2-yl)-3-(methylthio)-5-(trifluoromethyl)-[1,2,4]triazol o[4,3-a]pyridine-8-carboxamide] returned a melting point of 230 to 233 °C. Also, the “N (Amaranthus retroflexus) herbicidal effect” value in data set [1] (application to foliage) is 4 (Herbicidal ratio of 70% or more and less than 90%).

Turning to `CCSc1nnc2c(C(=O)Nc3nnc(C)o3)ccc(C(F)(F)F)n12` [1-032], the “N (Amaranthus retroflexus) herbicidal effect” value in data set [1] (application to foliage) was 5 (Herbicidal ratio of 90% or more (almost completely withered)).

As for `CCC(CC)c1nnc2c(C(=O)Nc3nnc(C)o3)ccc(C(F)(F)F)n12` [1-011], in data set [1] (application to foliage), the “N (Amaranthus retroflexus) herbicidal effect” value is 5 (Herbicidal ratio of 90% or more (almost completely withered)).

For the compound `Cc1nnc(NC(=O)c2ccc(C(F)F)n3c(C(C)C)nnc23)o1` [1-053], in data set [1] (application to foliage), the “N (Amaranthus retroflexus) herbicidal effect” value is 4 (Herbicidal ratio of 70% or more and less than 90%).

With `Cc1nnc(NC(=O)c2ccc(C(F)(F)F)n3c(C4=NOC(C)(C)C4)nnc23)o1` [1-029], the “N (Amaranthus retroflexus) herbicidal effect” value in data set [1] (application to foliage) is 5 (Herbicidal ratio of 90% or more (almost completely withered)).

Regarding `COc1ccccc1-c1nnc2c(C(=O)Nc3nnc(C)o3)ccc(C(F)(F)F)n12` [1-047], the “N (Amaranthus retroflexus) herbicidal effect” value in data set [1] (application to foliage) is reported as 5 (Herbicidal ratio of 90% or more (almost completely withered)).

With `COc1ccc(-c2nnc3c(C(=O)Nc4nnc(C)o4)ccc(C(F)(F)F)n23)cc1` [1-016], in data set [1] (application to foliage), the “N (Amaranthus retroflexus) herbicidal effect” value is reported as 5 (Herbicidal ratio of 90% or more (almost completely withered)).

As for `Cc1nnc(NC(=O)c2ccc(C(F)(F)F)n3c(C[S+]([O-])CC(F)(F)F)nnc23)o1` (centres unmarked) [1-038], in data set [1] (application to foliage), the “N (Amaranthus retroflexus) herbicidal effect” value was 5 (Herbicidal ratio of 90% or more (almost completely withered)).

Regarding `Cc1cc(-c2nnc3c(C(=O)Nc4nnc(C)o4)ccc(C(F)(F)F)n23)no1` [1-022], in data set [1] (application to foliage), the “N (Amaranthus retroflexus) herbicidal effect” value is on record as 5 (Herbicidal ratio of 90% or more (almost completely withered)).

For `COCCc1nnc(NC(=O)c2ccc(C(F)(F)F)n3c(C(C)C)nnc23)o1` [1-052], in data set [1] (application to foliage), the “N (Amaranthus retroflexus) herbicidal effect” value was 4 (Herbicidal ratio of 70% or more and less than 90%).

Consider `Cc1nnc(NC(=O)c2ccc(C(F)(F)F)n3c(CC(=O)O)nnc23)o1` [1-048], for which, in data set [1] (application to foliage), the “N (Amaranthus retroflexus) herbicidal effect” value is 4 (Herbicidal ratio of 70% or more and less than 90%).

Turning to `Cc1nnc(NC(=O)c2ccc(C(F)(F)F)n3c(CS(C)(=O)=O)nnc23)o1` [1-037], the “N (Amaranthus retroflexus) herbicidal effect” value in data set [1] (application to foliage) is listed as 5 (Herbicidal ratio of 90% or more (almost completely withered)).

On to `COCCOCc1nnc2c(C(=O)Nc3nnc(C)o3)ccc(C(F)(F)F)n12` [1-019], for which the “N (Amaranthus retroflexus) herbicidal effect” value in data set [1] (application to foliage) is 5 (Herbicidal ratio of 90% or more (almost completely withered)).

Turning to `Cc1nnc(NC(=O)c2ccc(C(F)(F)F)n3c(CC(=O)OC(C)C)nnc23)o1` [1-049], the “N (Amaranthus retroflexus) herbicidal effect” value in data set [1] (application to foliage) is listed as 5 (Herbicidal ratio of 90% or more (almost completely withered)).

With `Cc1nnc(NC(=O)c2ccc(C(F)(F)F)n3cnnc23)o1` [1-001], the “N (Amaranthus retroflexus) herbicidal effect” value in data set [1] (application to foliage) is 3 (Herbicidal ratio of 40% or more and less than 70%).

Consider `Cc1nnc(NC(=O)c2ccc(C(F)(F)F)n3c(-c4ccc(F)cc4)nnc23)o1` [1-044], for which, in data set [1] (application to foliage), the “N (Amaranthus retroflexus) herbicidal effect” value is given as 5 (Herbicidal ratio of 90% or more (almost completely withered)).

Consider `Cc1nnc(NC(=O)c2ccc(C(F)(F)F)n3c(-c4ccccc4)nnc23)o1` [1-012], for which the “N (Amaranthus retroflexus) herbicidal effect” value in data set [1] (application to foliage) was 3 (Herbicidal ratio of 40% or more and less than 70%).

Turning to `CSCc1nnc2c(C(=O)Nc3nnc(C)o3)ccc(C(F)(F)F)n12` [1-030], in data set [1] (application to foliage), the “N (Amaranthus retroflexus) herbicidal effect” value is given as 5 (Herbicidal ratio of 90% or more (almost completely withered)).

For the compound `COc1cccc(-c2nnc3c(C(=O)Nc4nnc(C)o4)ccc(C(F)(F)F)n23)c1` [1-046], the “N (Amaranthus retroflexus) herbicidal effect” value in data set [1] (application to foliage) is listed as 5 (Herbicidal ratio of 90% or more (almost completely withered)).

As for `Cc1nnc(NC(=O)c2ccc(C(F)(F)F)n3c(C4CC4)nnc23)o1` [1-010], the “N (Amaranthus retroflexus) herbicidal effect” value in data set [1] (application to foliage) is given as 5 (Herbicidal ratio of 90% or more (almost completely withered)).

Regarding `Cc1nnc(NC(=O)c2ccc(C(F)(F)F)n3c(COCC(F)(F)F)nnc23)o1` [1-020], the “N (Amaranthus retroflexus) herbicidal effect” value in data set [1] (application to foliage) is 4 (Herbicidal ratio of 70% or more and less than 90%).

For `CCc1nnc(NC(=O)c2ccc(C(F)(F)F)n3c(C(C)C)nnc23)o1` [1-005], in data set [1] (application to foliage), the “N (Amaranthus retroflexus) herbicidal effect” value is 3 (Herbicidal ratio of 40% or more and less than 70%).

`Cc1nnc(NC(=O)c2ccc(C(F)(F)F)n3c(-c4ccc(Cl)cc4)nnc23)o1` [1-017]: in data set [1] (application to foliage), the “N (Amaranthus retroflexus) herbicidal effect” value is given as 5 (Herbicidal ratio of 90% or more (almost completely withered)).

`Cc1nnc(NC(=O)c2ccc(C(F)(F)F)n3c(CSCC(F)(F)F)nnc23)o1` [1-031]: the “N (Amaranthus retroflexus) herbicidal effect” value in data set [1] (application to foliage) was 4 (Herbicidal ratio of 70% or more and less than 90%).

Take `CCC(C)c1nnc2c(C(=O)Nc3nnc(C)o3)ccc(C(F)(F)F)n12` (centres unmarked) [1-021]: the “N (Amaranthus retroflexus) herbicidal effect” value in data set [1] (application to foliage) is given as 5 (Herbicidal ratio of 90% or more (almost completely withered)).

Turning to `CCOC(=O)Cc1nnc2c(C(=O)Nc3nnc(C)o3)ccc(C(F)(F)F)n12` [1-042], the “N (Amaranthus retroflexus) herbicidal effect” value in data set [1] (application to foliage) was 4 (Herbicidal ratio of 70% or more and less than 90%).

Take `CCS(=O)(=O)c1nnc2c(C(=O)Nc3nnc(C)o3)ccc(C(F)(F)F)n12` [1-041]: the “N (Amaranthus retroflexus) herbicidal effect” value in data set [1] (application to foliage) is 5 (Herbicidal ratio of 90% or more (almost completely withered)).

As for `CC(C)c1nnc2c(C(=O)Nc3nnc(C4CC4)o3)ccc(C(F)(F)F)n12` [1-051], in data set [1] (application to foliage), the “N (Amaranthus retroflexus) herbicidal effect” value was 3 (Herbicidal ratio of 40% or more and less than 70%).

Turning to `Cc1cc(C(=O)Nc2nnnn2C)c2nnc(C(C)C)n2c1C(F)(F)F` [2-050], the “N (Amaranthus retroflexus) herbicidal effect grade” value in data set [1] (192 g/ha) was 2 (Herbicidal ratio of 20% or more and less than 40%).

As for `CCN(C)c1nnc2c(C(=O)Nc3nnnn3C)ccc(C(F)(F)F)n12` [2-088], the “herbicidal effect, N (Amaranthus retroflexus)” value in data set [1] (application to foliage, 141 g/ha) was 5 (Herbicidal ratio of 90% or more (almost completely withered)).
